Experimental data: patent US20250143306A1, “COMBINATION FOR IMPROVING PLANT GROWTH AND/OR YIELD, FORMULATION AND METHOD FOR INCREASING PLANT GROWTH, STRESS RESISTANCE, AND YIELDS, AND USE THEREOF” (INSTITUTE OF EXPERIMENTAL BOTANY CAS CR, V.V.I., priority 2022, published 2025)

Columns and labels:
Type in all cases: in vivo
[1] = tested on: sunflower (Helianthus sp. L.); assay: Seed yield of field-grown sunflower (Example 6); conditions: Hungary 2020, MTU 2 mg/L at 300 L/ha, pyroglutamic acid 50 g/ha
Experimental: Seeds of sunflower (Helianthus sp. L.) were sown in Hungary in 2020 in accordance with the Good Experimental Practice criteria. MTU was applied by spraying at a concentration of 10 μM (2 mg/L) and a dosage of 300 L/ha. Pyroglutamic acid was used at 50 g/ha, applied at a dosage of 300 L/ha in a water solution.

winter wheat plants = assay: Root dry weight of winter wheat, method of testing the synergistically effective amounts of MTU and PCA (optimal conditions)
Experimental: The synergistically effective amounts of MTU and pyroglutamic acid (PCA) were determined by the method of determining the root growth of winter wheat plants. […].
As a first control, MTU was applied to another group of the winter wheat plants at the following amounts: 1, 2, 4 and 8 mg/liter of the composition.
As a second control, PCA was applied to another group of the winter wheat plants at the amount of 200 mg/liter of the composition.
As a negative control, another group of the winter wheat plants was applied only water in the same amount as the compositions applied to the above-described groups.
The plants were then grown at 20° C. under natural light for a period of 45 days. The root dry weight (RDW) of at least 30 plants was measured 45 days after the plants had been sown for each group. RDW was recorded after drying the plants at 70° C. for 2 days.
The relative increase in RDW was calculated as % of control (Table 1). The % of control for combinations containing MTU: PCA in ratios 1:200, 2:200 and 4:200 was higher than the sum of % of control of only PCA group (+8.8%) with the MTU group (1, 2 or 4 mg).

[2] = tested on: Oilseed rape variety Elgar (2018) and Elizze (2019); assay: Grain yield of field-grown oilseed rape (Example 5); conditions: MTU 0.4 g/ha, pyroglutamic acid 40 g/ha
Experimental: Oilseed rape variety Elgar (2018) and Elizze (2019) were grown in the UK in the years 2018 and 2019. Experiments were performed in accordance with the Good Experimental Practice criteria. MTU was applied by spraying at a concentration of 10 μM (2 mg/L) and a dosage of 200 L/ha (0.4 g/ha of MTU). Pyroglutamic acid was used at 40 g/ha, applied at a dosage of 200 L/ha in a water solution.

[3] = tested on: wheat (Triticum aestivum) cv. Balitus; assay: Root and shoot dry weight and total chlorophyll content of wheat under drought stress conditions (Example 2)
Experimental: To investigate the effect of the combinations on the weight parameters, and the total content of chlorophyll, seeds of wheat (Triticum aestivum) cv. Balitus were sown in a hydroponic growing system (Araponics, Liege, Belgium) using Hoagland's solution (control). Twenty days after sowing plants (except for control plants) were sprayed by either MTU (10 μM) or by nitrogen utilization enhancers alone or with a combination of MTU (10 μM) and nitrogen utilization enhancers. The plants were grown in a glasshouse at 20-28° C. under a combination of natural and artificial light. Since the treatment (20 days after sowing), the plants received low water doses. […] The root dry weight (RDW), shoot dry weight (SDW), and total chlorophyll content (TCC) of at least 25 plants were measured at the end of the experiment—45 days after the plants had been sown. RDW and SDW were recorded after drying the plants at 70° C. for 2 days. The chlorophyll content of each plant was measured by SPAD meter reading at the end of the experiment and TCC was calculated as SPAD value per SDW.

[4] = tested on: Winter wheat variety Barrel; assay: Nitrogen content in grains of field-grown winter wheat, Kjeldahl method (Example 4); conditions: MTU 0.4 g/ha, pyroglutamic acid 40 g/ha
Experimental: (§1) The field experiments were done in 2019 in the UK and they were performed in accordance with the Good Experimental Practice criteria. Winter wheat variety Barrel was used. MTU was applied by spraying at a concentration of 10 μM (2 mg/L) and a dosage of 200 L/ha (0.4 g/ha of MTU). Pyroglutamic acid was used at 40 g/ha, applied at a dose of 200 l/ha in a water solution.
Wheat grains used to make bread require a grain nitrogen content of 2.1% (w/w) or higher. Grains from each sample treatment from the experiment described in Example 3 were analyzed for nitrogen content. The analysis was done using a Kjeldahl method (Kjeldahl, J. (1883) “New method for the determination of nitrogen in organic substances), Zeitschrift für analytische Chemie, 22 (1): 366-383.

[5] = tested on: wheat (Triticum aestivum) cv. Balitus; assay: Root and shoot dry weight and leaf nitrogen content of hydroponically grown wheat under optimal conditions (Example 1)
Experimental: To investigate the effect of the combinations on the weight parameters, the seeds of wheat (Triticum aestivum) cv. Balitus were sown in a hydroponic growing system (Araponics, Liege, Belgium) using Hoagland's solution (control). Twenty days after sowing, plants (except for control plants) were sprayed by aqueous solution of either MTU (10 μM) or by a nitrogen utilization enhancer alone or by a combination of MTU (10 μM) with the nitrogen utilization enhancer. The plants were grown in the Czech Republic in a glasshouse at 16-25° C. under natural and artificial light during the winter period. The root dry weight (RDW), shoot dry weight (SDW) and the nitrogen content in the leaves of at least 30 plants were measured 45 days after the plants had been sown. RDW and SDW were recorded after drying the plants at 70° C. for 2 days.

[6] = tested on: Winter wheat variety Barrel; assay: Grain yield of field-grown winter wheat (Example 3); conditions: MTU 0.4 g/ha, pyroglutamic acid 40 g/ha, UK 2019
Experimental: as §1

[7] = UK 2018, application at BBCH 13
[8] = UK 2018, application at BBCH 65
[9] = UK 2019, application at BBCH 65
[10] = UK 2019, application at BBCH 70

COCCNC(=O)Nc1cnns1 [MTU, 1-(2-methoxyethyl)-3-(1,2,3-thiadiazol-5yl)urea]
Yield % of control ([1]; application at BBCH 16-18): +12.0% | Yield (seed) ([1]; application at BBCH 16-18): 3.08 t/ha | Yield % of control ([1]; application at BBCH 55): +4.7% | Yield (seed) ([1]; application at BBCH 55): 2.88 t/ha | RDW % of control (winter wheat plants; 1 mg in 1 liter of composition): +5.5% | RDW (root dry weight) (winter wheat plants; 1 mg in 1 liter of composition): 0.96 g | RDW % of control (winter wheat plants; 2 mg in 1 liter of composition): +7.7% | RDW (root dry weight) (winter wheat plants; 2 mg in 1 liter of composition): 0.98 g | RDW % of control (winter wheat plants; 4 mg in 1 liter of composition): +15.4% | RDW (root dry weight) (winter wheat plants; 4 mg in 1 liter of composition): 1.05 g | RDW % of control (winter wheat plants; 8 mg in 1 liter of composition): +18.1% | RDW (root dry weight) (winter wheat plants; 8 mg in 1 liter of composition): 1.07 g | Yield % of control [2, 7]: +2.9% | Yield (grain) [2, 7]: 3.90 t/ha | Yield % of control [2, 8]: +4.8% | Yield (grain) [2, 8]: 4.61 t/ha | Yield % of control [2, 9]: +6.2% | Yield (grain) [2, 9]: 3.93 t/ha | Yield % of control [2, 10]: +3.8% | Yield (grain) [2, 10]: 3.84 t/ha | RDW (root dry weight) ([3]; concentration 2 mg/L): 0.74 g | SDW (shoot dry weight) ([3]; concentration 2 mg/L): 1.28 g | Nitrogen content % of control ([4]; application at BBCH 32): −9.5% | Nitrogen content (%) of grains ([4]; application at BBCH 32): 1.82% | Nitrogen content % of control ([4]; application at BBCH 39): −2.0% | Nitrogen content (%) of grains ([4]; application at BBCH 39): 1.97% | Nitrogen content % of control ([4]; application at BBCH 50-55): −10.0% | Nitrogen content (%) of grains ([4]; application at BBCH 50-55): 1.81% | Nitrogen content in the leaves ([5]; concentration 2 mg/L): 4.47 weight % | RDW % of control ([5]; concentration 2 mg/L): +3.8% | RDW (root dry weight) ([5]; concentration 2 mg/L): 0.83 g | SDW % of control ([5]; concentration 2 mg/L): +3.9% | SDW (shoot dry weight) ([5]; concentration 2 mg/L): 1.58 g | Yield % of control ([6]; application at BBCH 32): +2.4% | Yield (grain) ([6]; application at BBCH 32): 10.225 t/ha | Yield % of control ([6]; application at BBCH 39): +2.4% | Yield (grain) ([6]; application at BBCH 39): 10.230 t/ha | Yield % of control ([6]; application at BBCH 50-55): +0.5% | Yield (grain) ([6]; application at BBCH 50-55): 10.033 t/ha

poly-γ-(glutamic acid) [γ-PGA]
RDW % of control ([3]; concentration 250 mg/L): +9.0% | RDW (root dry weight) ([3]; concentration 250 mg/L): 0.73 g | SDW % of control ([3]; concentration 250 mg/L): +2.5% | SDW (shoot dry weight) ([3]; concentration 250 mg/L): 1.25 g | TCC % (total chlorophyll content) ([3]; concentration 250 mg/L): 112% | Nitrogen content in the leaves ([5]; concentration 250 mg/L): 4.74 weight % | RDW % of control ([5]; concentration 250 mg/L): +5.0% | RDW (root dry weight) ([5]; concentration 250 mg/L): 0.84 g | SDW % of control ([5]; concentration 250 mg/L): +6.6% | SDW (shoot dry weight) ([5]; concentration 250 mg/L): 1.62 g

NCC(=O)O [glycine]
RDW % of control ([3]; concentration 100 mg/L): +7.5% | RDW (root dry weight) ([3]; concentration 100 mg/L): 0.72 g | SDW % of control ([3]; concentration 100 mg/L): +5.7% | SDW (shoot dry weight) ([3]; concentration 100 mg/L): 1.29 g | RDW % of control ([3]; concentration 250 mg/L): +13.4% | RDW (root dry weight) ([3]; concentration 250 mg/L): 0.76 g | SDW % of control ([3]; concentration 250 mg/L): +11.5% | SDW (shoot dry weight) ([3]; concentration 250 mg/L): 1.36 g | RDW % of control ([5]; concentration 100 mg/L): +5.0% | RDW (root dry weight) ([5]; concentration 100 mg/L): 0.84 g | SDW % of control ([5]; concentration 100 mg/L): +5.9% | SDW (shoot dry weight) ([5]; concentration 100 mg/L): 1.61 g | Nitrogen content in the leaves ([5]; concentration 250 mg/L): 4.64 weight % | RDW % of control ([5]; concentration 250 mg/L): +7.5% | RDW (root dry weight) ([5]; concentration 250 mg/L): 0.86 g | SDW % of control ([5]; concentration 250 mg/L): +8.6% | SDW (shoot dry weight) ([5]; concentration 250 mg/L): 1.65 g

O=C(O)CCC(=O)C(=O)O [2-oxoglutarate]
RDW % of control ([3]; concentration 100 mg/L): +11.9% | RDW (root dry weight) ([3]; concentration 100 mg/L): 0.75 g | SDW % of control ([3]; concentration 100 mg/L): +10.7% | SDW (shoot dry weight) ([3]; concentration 100 mg/L): 1.35 g | TCC % (total chlorophyll content) ([3]; concentration 100 mg/L): 107% | RDW % of control ([3]; concentration 250 mg/L): +16.4% | RDW (root dry weight) ([3]; concentration 250 mg/L): 0.78 g | SDW % of control ([3]; concentration 250 mg/L): +14.8% | SDW (shoot dry weight) ([3]; concentration 250 mg/L): 1.4 g | TCC % (total chlorophyll content) ([3]; concentration 250 mg/L): 112% | RDW % of control ([5]; concentration 100 mg/L): +8.8% | RDW (root dry weight) ([5]; concentration 100 mg/L): 0.87 g | SDW % of control ([5]; concentration 100 mg/L): +5.3% | SDW (shoot dry weight) ([5]; concentration 100 mg/L): 1.60 g | Nitrogen content in the leaves ([5]; concentration 250 mg/L): 4.67 weight % | RDW % of control ([5]; concentration 250 mg/L): +13.8% | RDW (root dry weight) ([5]; concentration 250 mg/L): 0.91 g | SDW % of control ([5]; concentration 250 mg/L): +8.6% | SDW (shoot dry weight) ([5]; concentration 250 mg/L): 1.65 g

CCCCCC(=O)OCCN(CC)CC [DA6, diethyl aminoethyl hexanoate]
RDW % of control ([3]; concentration 20 mg/L): +13.4% | RDW (root dry weight) ([3]; concentration 20 mg/L): 0.76 g | SDW % of control ([3]; concentration 20 mg/L): +6.6% | SDW (shoot dry weight) ([3]; concentration 20 mg/L): 1.3 g | TCC % (total chlorophyll content) ([3]; concentration 20 mg/L): 110% | Nitrogen content in the leaves ([5]; concentration 25 mg/L): 4.53 weight % | RDW % of control ([5]; concentration 25 mg/L): +8.8% | RDW (root dry weight) ([5]; concentration 25 mg/L): 0.87 g | SDW % of control ([5]; concentration 25 mg/L): +5.9% | SDW (shoot dry weight) ([5]; concentration 25 mg/L): 1.61 g

OP(O)O [[PO3]^3−, phosphite]
RDW % of control ([3]; concentration 600 mg/L): +16.4% | RDW (root dry weight) ([3]; concentration 600 mg/L): 0.78 g | SDW % of control ([3]; concentration 600 mg/L): +8.2% | SDW (shoot dry weight) ([3]; concentration 600 mg/L): 1.32 g | TCC % (total chlorophyll content) ([3]; concentration 600 mg/L): 105% | Nitrogen content in the leaves ([5]; concentration 600 mg/L): 4.81 weight % | RDW % of control ([5]; concentration 600 mg/L): +18.8% | RDW (root dry weight) ([5]; concentration 600 mg/L): 0.95 g | SDW % of control ([5]; concentration 600 mg/L): +14.5% | SDW (shoot dry weight) ([5]; concentration 600 mg/L): 1.74 g
